Consider 15 molecules from patent US6423689B1, “Peptidyl calcium channel blockers” (Warner-Lambert Company, priority 1997, dated 2002).

The test concerns the target T1, N-type Ca2+ channels in IMR-32 cells (Homo sapiens, UniProt Q00975).
T1 construct: host or cells: IMR-32 cells, differentiated with dibutyryl cAMP and bromodeoxyuridine
The experiment in a line: Inhibition of N-type calcium flux in IMR-32 cells (Indo-1 fluorescence, nitrendipine present). The test is classed as cell-based. On the procedure:
Measurement of N-type Ca^2+ Channel Blocking Potencies of Compounds in IMR-32 Cells Using the Fluorescent Ca^2+ Indicator Indo-1
IMR-32 cells are a human tumoral cell line of neural origin. […] Calcium flux into these cells may be induced by stimulation with elevated potassium concentrations. The L-channel component of calcium flux may be blocked by adding 5 μM nitrendipine. The remaining component of calcium entry into the IMR-32 cells is due to calcium flux through N-type calcium channels. Intracellular calcium concentrations are measured using the fluorescent calcium indicator Indo 1. The effect of drug concentration on calcium uptake is studied.
The IMR-32 cell line was obtained from the American Type Culture Collection (Rockville, Md.). Cells were grown in Eagle's Minimum Essential Medium with Eagle's salts supplemented with 10% fetal bovine serum, 2 mM L-Gln and antibiotic/antimycotic mixture (Gibco). […] After 7 to 13 days of differentiation, cells were detached using 0.5 mM EDTA and loaded with 5 μM Indo-1 acetoxymethyl ester (Molecular Probes, Eugene, OR) at […] for 45 minutes. Loaded cells were washed twice, resuspended (˜10^7 cells/mL) in assay buffer (10 mM HEPES/Tris pH 7.4 in Hank's Balanced Salt Solution without bicarbonate or phenol red containing 0.5% bovine serum albumin) and kept on ice until use. Fluorescence measurements were carried out in a Photon Technology International (PTI, South Brunswick, N.J.) Model RF-F3004 spectrofluorometer with dual emission monochromators using excitation at 350 nm and emission at 400 and 490 nm. The instrument was equipped with a thermostated cuvette holder with stirring capabilities as well as with a computer-controlled pump which allowed for reagent addition during measurement. Instrument control and data collection was done by PTI's OSCAR software running on an IBM compatible computer. […] Samples were incubated for 10 minutes at 30° C. and then aliquoted into three 10×10 mm disposable acrylic cuvettes. Emission signals at 400 and 490 nm were acquired from each cuvette at 30° C. for 50 seconds. At 20 seconds after the start of reading, cells were depolarized by the addition of 160 μL of stimulation solution (1M KCl, 68 mM CaCl2) to the cuvette via the computer-controlled pump. Ratio of dual emission signals (400 nm/490 nm), which is proportional to intracellular Ca^2+ concentration, was plotted against time, and the difference between maximal response after stimulation and basal value (before stimulation) was determined. Values obtained in this way were plotted as a function of drug concentration. IC50 values of test compounds were calculated by fitting a four-parameter logistic function to the data using the least squares method.

T1 sequence (Q00975 whole entry): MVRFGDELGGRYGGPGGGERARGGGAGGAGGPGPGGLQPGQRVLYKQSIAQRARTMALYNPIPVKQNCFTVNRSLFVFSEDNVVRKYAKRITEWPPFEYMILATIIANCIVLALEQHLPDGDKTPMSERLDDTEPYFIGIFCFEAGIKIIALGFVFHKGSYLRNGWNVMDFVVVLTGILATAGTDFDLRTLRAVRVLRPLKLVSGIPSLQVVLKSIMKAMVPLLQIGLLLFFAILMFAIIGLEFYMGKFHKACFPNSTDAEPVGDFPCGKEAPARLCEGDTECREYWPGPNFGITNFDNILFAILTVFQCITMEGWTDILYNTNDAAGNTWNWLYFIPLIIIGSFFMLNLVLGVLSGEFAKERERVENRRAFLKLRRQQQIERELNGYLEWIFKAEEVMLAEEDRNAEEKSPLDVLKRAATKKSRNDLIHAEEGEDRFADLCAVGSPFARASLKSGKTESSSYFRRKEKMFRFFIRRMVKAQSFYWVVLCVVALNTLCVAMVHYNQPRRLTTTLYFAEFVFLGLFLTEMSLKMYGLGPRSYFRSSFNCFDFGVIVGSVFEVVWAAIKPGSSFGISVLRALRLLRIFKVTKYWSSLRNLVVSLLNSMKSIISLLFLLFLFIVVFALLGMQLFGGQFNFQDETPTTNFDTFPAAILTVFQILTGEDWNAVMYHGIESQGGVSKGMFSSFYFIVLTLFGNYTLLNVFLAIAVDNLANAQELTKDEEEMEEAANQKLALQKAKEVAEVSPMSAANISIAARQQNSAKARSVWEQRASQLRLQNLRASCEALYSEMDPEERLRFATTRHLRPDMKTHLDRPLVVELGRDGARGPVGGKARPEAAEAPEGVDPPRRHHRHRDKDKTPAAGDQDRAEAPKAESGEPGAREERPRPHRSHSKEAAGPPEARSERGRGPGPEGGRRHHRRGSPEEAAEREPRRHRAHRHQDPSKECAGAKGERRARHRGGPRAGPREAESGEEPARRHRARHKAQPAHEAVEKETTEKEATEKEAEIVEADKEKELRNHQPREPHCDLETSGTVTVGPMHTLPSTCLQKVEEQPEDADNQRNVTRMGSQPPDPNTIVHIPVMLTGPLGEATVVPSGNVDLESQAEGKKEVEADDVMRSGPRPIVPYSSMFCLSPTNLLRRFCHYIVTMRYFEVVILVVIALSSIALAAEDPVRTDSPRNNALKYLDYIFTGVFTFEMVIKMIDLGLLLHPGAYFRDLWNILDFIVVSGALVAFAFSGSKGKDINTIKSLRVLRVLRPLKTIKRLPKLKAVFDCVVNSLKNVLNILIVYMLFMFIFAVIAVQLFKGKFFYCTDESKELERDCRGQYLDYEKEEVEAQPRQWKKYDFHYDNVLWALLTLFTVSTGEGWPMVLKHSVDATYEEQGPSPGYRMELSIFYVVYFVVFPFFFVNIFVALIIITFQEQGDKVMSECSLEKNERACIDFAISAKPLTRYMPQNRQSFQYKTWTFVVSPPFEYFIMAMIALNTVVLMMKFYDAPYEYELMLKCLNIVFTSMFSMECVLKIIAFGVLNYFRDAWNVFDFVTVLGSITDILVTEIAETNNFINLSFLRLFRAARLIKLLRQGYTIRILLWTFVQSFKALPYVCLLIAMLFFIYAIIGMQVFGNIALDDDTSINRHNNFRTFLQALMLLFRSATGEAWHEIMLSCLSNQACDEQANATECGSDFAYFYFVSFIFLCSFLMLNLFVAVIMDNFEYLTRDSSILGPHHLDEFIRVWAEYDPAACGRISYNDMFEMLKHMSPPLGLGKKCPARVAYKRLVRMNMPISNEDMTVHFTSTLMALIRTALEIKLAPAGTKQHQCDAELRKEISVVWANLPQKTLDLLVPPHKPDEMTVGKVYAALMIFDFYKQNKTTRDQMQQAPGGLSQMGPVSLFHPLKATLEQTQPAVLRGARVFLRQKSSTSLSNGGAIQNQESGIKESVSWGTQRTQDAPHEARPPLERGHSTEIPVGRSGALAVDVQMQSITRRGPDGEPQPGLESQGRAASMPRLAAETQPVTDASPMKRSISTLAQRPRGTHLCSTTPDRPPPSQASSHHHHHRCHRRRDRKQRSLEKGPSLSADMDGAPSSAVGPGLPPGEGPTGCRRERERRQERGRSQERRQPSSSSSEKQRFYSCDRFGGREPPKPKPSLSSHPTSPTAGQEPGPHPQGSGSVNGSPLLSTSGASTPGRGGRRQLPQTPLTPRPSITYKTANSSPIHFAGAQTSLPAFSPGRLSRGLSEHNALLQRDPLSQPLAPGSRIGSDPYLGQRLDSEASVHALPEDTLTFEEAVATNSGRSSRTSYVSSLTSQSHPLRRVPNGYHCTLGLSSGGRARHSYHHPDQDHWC
T1 sequence (P54289 25-956 partner limits assumed): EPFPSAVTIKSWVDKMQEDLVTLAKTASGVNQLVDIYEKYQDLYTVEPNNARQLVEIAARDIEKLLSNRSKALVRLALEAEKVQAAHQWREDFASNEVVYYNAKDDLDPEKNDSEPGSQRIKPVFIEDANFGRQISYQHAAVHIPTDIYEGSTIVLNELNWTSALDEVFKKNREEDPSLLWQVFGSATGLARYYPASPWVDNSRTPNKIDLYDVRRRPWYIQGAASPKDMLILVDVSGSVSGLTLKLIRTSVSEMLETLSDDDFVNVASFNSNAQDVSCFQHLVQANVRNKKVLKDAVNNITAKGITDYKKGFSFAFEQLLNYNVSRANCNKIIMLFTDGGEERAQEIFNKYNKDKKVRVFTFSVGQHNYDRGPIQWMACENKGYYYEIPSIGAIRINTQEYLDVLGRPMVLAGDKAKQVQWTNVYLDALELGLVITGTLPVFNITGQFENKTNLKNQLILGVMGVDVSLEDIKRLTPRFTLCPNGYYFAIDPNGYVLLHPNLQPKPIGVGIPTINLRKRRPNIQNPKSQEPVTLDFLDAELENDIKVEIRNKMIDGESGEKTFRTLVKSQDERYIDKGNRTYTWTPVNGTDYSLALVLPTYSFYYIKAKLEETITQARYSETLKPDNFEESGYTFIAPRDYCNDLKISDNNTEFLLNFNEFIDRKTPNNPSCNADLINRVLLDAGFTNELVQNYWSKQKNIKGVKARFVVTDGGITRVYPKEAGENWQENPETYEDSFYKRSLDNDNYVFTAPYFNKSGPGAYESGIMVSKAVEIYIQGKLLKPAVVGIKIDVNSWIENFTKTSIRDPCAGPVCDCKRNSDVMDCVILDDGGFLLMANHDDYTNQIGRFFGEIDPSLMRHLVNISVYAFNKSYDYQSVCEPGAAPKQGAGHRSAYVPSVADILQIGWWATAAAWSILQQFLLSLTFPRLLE
T1 sequence (P54289 957-1103 partner limits assumed): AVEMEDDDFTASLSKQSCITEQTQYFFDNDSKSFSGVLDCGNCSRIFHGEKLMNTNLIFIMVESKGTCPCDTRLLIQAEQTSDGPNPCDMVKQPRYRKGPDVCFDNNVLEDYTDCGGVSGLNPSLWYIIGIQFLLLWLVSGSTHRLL
T1 sequence (P54284 whole entry partner): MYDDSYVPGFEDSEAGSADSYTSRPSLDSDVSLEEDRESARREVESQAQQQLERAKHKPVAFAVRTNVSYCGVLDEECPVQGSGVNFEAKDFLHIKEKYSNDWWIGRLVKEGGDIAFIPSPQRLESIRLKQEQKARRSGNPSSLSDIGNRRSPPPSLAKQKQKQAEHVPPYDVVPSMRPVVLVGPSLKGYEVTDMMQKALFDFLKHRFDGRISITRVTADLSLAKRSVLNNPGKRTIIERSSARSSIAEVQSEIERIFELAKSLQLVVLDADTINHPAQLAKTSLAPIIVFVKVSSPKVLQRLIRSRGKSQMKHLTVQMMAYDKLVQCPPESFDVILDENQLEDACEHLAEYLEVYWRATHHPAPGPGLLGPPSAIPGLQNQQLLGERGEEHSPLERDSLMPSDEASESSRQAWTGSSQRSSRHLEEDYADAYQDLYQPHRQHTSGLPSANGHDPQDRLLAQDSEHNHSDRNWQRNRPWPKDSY

As for `CC(C)C[C@H](NC(=O)N1CCCCCC1)C(=O)N[C@@H](Cc1ccc(OCc2ccccc2)cc1)C(=O)OCc1ccccc1` (relative stereo) [Example 14, [S-(R*,R*)]-2-{2-[(Azepane-1-carbonyl)-amino]-4-methyl-pentanoylamino}-3-(4-benzyloxy-phenyl)-propionic acid benzyl ester], the “Inhibition of Calcium Flux in IMR-32 Cells % Inhibition at 1 μM” value turned out to be 45%.

On to `COC(=O)[C@H](Cc1ccc(OC(C)(C)C)cc1)NC(=O)[C@H](CC(C)C)NC(=O)N1CCCCCC1` (relative stereo) [Example 22, [S-(R*,R*)]-2-{2-[(Azepane-1-carbonyl)-amino]-4-methyl-pentanoylamino}-3-(4-tert-butoxy-phenyl)-propionic acid methyl ester], for which the “Inhibition of Calcium Flux in IMR-32 Cells % Inhibition at 1 μM” value came to 29%.

With `CC(C)C[C@H](NC(=O)N1CCCCCC1)C(=O)N[C@@H](Cc1ccc(OCc2cccc(N)c2)cc1)C(=O)OC(C)(C)C` (relative stereo) [Example 29, [S-(R*,R*)]-3-[4-(3-Amino-benzyloxy)-phenyl]-2-{2-[(azepane-1-carbonyl)-amino]-4-methyl-pentanoylamino}-propionic acid tert-butyl ester], the “Inhibition of Calcium Flux in IMR-32 Cells % Inhibition at 1 μM” value was 43% and the “Inhibition of Calcium Flux in IMR-32 Cells % Inhibition at 10 μM” value turned out to be 87%.

For `CC(C)C[C@H](NC(=O)N1CCOCC1)C(=O)N[C@@H](Cc1ccc(OCc2ccccc2)cc1)C(=O)OC(C)(C)C` (relative stereo) [Example 34, [S-(R*,R*)]-3-(4-Benzyloxy-phenyl)-2(S)-{4-methyl-2(S)-[(morpholine-4-carbonyl)-amino]-pentanoylamino}-propionic acid tert-butyl ester], the “Inhibition of Calcium Flux in IMR-32 Cells % Inhibition at 1 μM” value stood at 29% and the “Inhibition of Calcium Flux in IMR-32 Cells % Inhibition at 10 μM” value was 78%.

On to `CC(C)C[C@H](NC(=S)Nc1ccc(C(C)C)cc1)C(=O)N[C@@H](Cc1ccc(OCc2ccccc2)cc1)C(=O)OC(C)(C)C` (relative stereo) [Example 43, [S-(R*,R*)]-3-(4-Benzyloxy-phenyl)-2-{2-[3-(4-isopropyl-phenyl)-thioureido]-4-methyl-pentanoylamino}-propionic acid, tert-butyl ester], for which the “Inhibition of Calcium Flux in IMR-32 Cells % Inhibition at 1 μM” value is listed as 17% and the “Inhibition of Calcium Flux in IMR-32 Cells % Inhibition at 10 μM” value is on record as 38%.

Consider `CC(C)C[C@H](NC(=S)Nc1ccc(Br)cc1)C(=O)N[C@@H](Cc1ccc(OCc2ccccc2)cc1)C(=O)OC(C)(C)C` (relative stereo) [Example 45, [S-(R*,R*)]-3-(4-Benzyloxy-phenyl)-2-{2-[3-(4-bromophenyl)-thioureido]-4-methyl-pentanoyl-amino}-propionic acid, tert-butyl ester], for which the “Inhibition of Calcium Flux in IMR-32 Cells % Inhibition at 1 μM” value is given as 29% and the “Inhibition of Calcium Flux in IMR-32 Cells % Inhibition at 10 μM” value amounted to 68%.

With `CC(C)C[C@H](NC(=S)NC12CC3CC(CC(C3)C1)C2)C(=O)N[C@@H](Cc1ccc(OCc2ccccc2)cc1)C(=O)OC(C)(C)C` (relative stereo) [Example 46, [S-(R*,R*)]-3-(4-Benzyloxy-phenyl)-2-{2-[3-(1-adamantyl)-thioureido]-4-methylpentanoylamino}-propionic acid, tert-butyl ester], the “Inhibition of Calcium Flux in IMR-32 Cells % Inhibition at 1 μM” value is 29% and the “Inhibition of Calcium Flux in IMR-32 Cells % Inhibition at 10 μM” value was 49%.

In the case of `Cc1ccc(NC(=S)N[C@@H](CC(C)C)C(=O)N[C@@H](Cc2ccc(OCc3ccccc3)cc2)C(=O)OC(C)(C)C)cc1` (relative stereo) [Example 50, [S-(R*,R*)]-3-(4-Benzyloxy-phenyl)-2-[4-methyl-2-(3-p-tolyl-thioureido)-pentanoylamino]-propionic acid tert-butyl ester], the “Inhibition of Calcium Flux in IMR-32 Cells % Inhibition at 1 μM” value was determined as 53% and the “Inhibition of Calcium Flux in IMR-32 Cells % Inhibition at 10 μM” value came to 85%.

With `CNC(=S)N[C@@H](CC(C)C)C(=O)N[C@@H](Cc1ccc(OCc2ccccc2)cc1)C(=O)OC(C)(C)C` (relative stereo) [Example 51, [S-(R*,R*)]-3-(4-Benzyloxy-phenyl)-2-[4-methyl-2-(3-methyl-thioureido)-pentanoylamino]-propionic acid tert-butyl ester], the “Inhibition of Calcium Flux in IMR-32 Cells % Inhibition at 1 μM” value was 32% and the “Inhibition of Calcium Flux in IMR-32 Cells % Inhibition at 10 μM” value is 85%.

Regarding `CC(C)C[C@H](NC(=O)N1CCCCCC1)C(=O)N[C@@H](Cc1ccc(OCc2c(Cl)cccc2Cl)cc1)C(=O)NC(C)(C)C` (relative stereo) [Example 52, [S-(R*,R*)]-Azepane-1-carboxylic acid (1-{1-tert-butylcarbamoyl-2-[4-(2,6-dichloro-benzyloxy)-phenyl]-ethylcarbamoyl}-3-methyl-butyl)-amide], the “Inhibition of Calcium Flux in IMR-32 Cells % Inhibition at 1 μM” value turned out to be 56% and the “Inhibition of Calcium Flux in IMR-32 Cells % Inhibition at 10 μM” value came to 76%.

In the case of `CC(C)C[C@H](NC(=O)Nc1ccccc1)C(=O)N[C@@H](Cc1ccc(OCc2ccccc2)cc1)C(=O)OC(C)(C)C` (relative stereo) [Example 54, [S-(R*,R*)]-3-(4-Benzyloxy-phenyl)-2-[4-methyl-2-(3-phenyl-ureido)-pentanoylamino]propionic acid tert-butyl ester], the “Inhibition of Calcium Flux in IMR-32 Cells % Inhibition at 1 μM” value is reported as 44% and the “Inhibition of Calcium Flux in IMR-32 Cells % Inhibition at 10 μM” value is given as 63%.

As for `CC(C)C[C@H](NC(=O)Nc1ccc([N+](=O)[O-])cc1)C(=O)N[C@@H](Cc1ccc(OCc2ccccc2)cc1)C(=O)OC(C)(C)C` (relative stereo) [Example 55, [S-(R*,R*)]-3-(4-Benzyloxy-phenyl)-2-{4-methyl-2-[3-(4-nitro-phenyl)-ureido]pentanoylamino}-propionic acid tert-butyl ester], the “Inhibition of Calcium Flux in IMR-32 Cells % Inhibition at 1 μM” value came out at 14% and the “Inhibition of Calcium Flux in IMR-32 Cells % Inhibition at 10 μM” value came out at 46%.

Turning to `CC(C)C[C@H](NC(=O)NC1CCCCC1)C(=O)N[C@@H](Cc1ccc(OCc2ccccc2)cc1)C(=O)OC(C)(C)C` (relative stereo) [Example 56, [S-(R*,R*)]-3-(4-Benzyloxy-phenyl)-2-[2-(3-cyclohexyl-ureido)-4-methyl-pentanoylamino]propionic acid tert-butyl ester], the “Inhibition of Calcium Flux in IMR-32 Cells % Inhibition at 1 μM” value worked out at 24% and the “Inhibition of Calcium Flux in IMR-32 Cells % Inhibition at 10 μM” value is on record as 56%.

`COc1cccc(NC(=O)N[C@@H](CC(C)C)C(=O)N[C@@H](Cc2ccc(OCc3ccccc3)cc2)C(=O)OC(C)(C)C)c1` (relative stereo) [Example 57, [S-(R*,R*)]-3-(4-Benzyloxy-phenyl)-2-{2-[3-(3-methoxy-phenyl)-ureido]-4-methyl-pentanoylamino}-propionic acid tert-butyl ester]: the “Inhibition of Calcium Flux in IMR-32 Cells % Inhibition at 1 μM” value is on record as 34% and the “Inhibition of Calcium Flux in IMR-32 Cells % Inhibition at 10 μM” value amounted to 74%.

As to `Cc1ccc(NC(=O)N[C@@H](CC(C)C)C(=O)N[C@@H](Cc2ccc(OCc3ccccc3)cc2)C(=O)OC(C)(C)C)cc1` (relative stereo) [Example 58, [S-(R*,R*)]-3-(4-Benzyloxy-phenyl)-2-[4-methyl-2-(3-p-tolyl-ureido)-pentanoylamino]propionic acid tert-butyl ester], the “Inhibition of Calcium Flux in IMR-32 Cells % Inhibition at 1 μM” value is 52% and the “Inhibition of Calcium Flux in IMR-32 Cells % Inhibition at 10 μM” value is 35%.
